One series concerns patients with MDD. Nature of the series: Five Phase II studies of vilazodone, eight weeks of treatment. Format: in vivo, human. The text has this: As part of the vilazodone development program, five Phase II studies have been conducted, all in patients with MDD. These studies randomized 2,098 patients for eight weeks of treatment, 1196 of whom received vilazodone.
The test system of a further series is beagle dogs. Nature of the series: Pre-clinical study in beagle dogs. Format: in vivo, dog.

Take `Cl.N#Cc1ccc2[nH]cc(CCCCN3CCN(c4ccc5oc(C(N)=O)cc5c4)CC3)c2c1` [Vilazodone, 5-{4-[4-(5-Cyano-3-indolyl)-butyl]-1-piperazinyl}-benzofuran-2-carboxamide hydrochloride]: the overall safety entry in the series with patients with MDD (Phase II studies) is on record as “generally shown to be safe”. For the same compound, in the series with patients with MDD (Phase II, subjects treated with vilazodone), the “clinically significant finding from ophthalmologic examinations” value is on record as “increase in the incidence of mild ocular drying”. For the same compound, the “primary efficacy variable compared to placebo” value in the series on patients with MDD (each of the Phase II studies) is listed as “did not show a statistically significant difference”. Besides, the “response stratified by baseline disease severity” value in the series with patients with MDD (exploratory analyses of Phase II studies) is “a larger treatment effect is observed for more severely depressed patients”. The “most common adverse events” value with patients with MDD (reported by at least ten percent of vilazodone-treated patients, Phase II, MDD) is “nausea, diarrhea, headache, insomnia, dizziness, dry mouth, somnolence, abnormal dreams, and vomiting”. Besides, the ocular findings entry with beagle dogs is “treatment emergent corneal opacities and reduced tear production”.
